Experimental findings from patent US20070077316A1, “Compositions and methods for treating and preventing virus infections” (priority 2005, published 2007) are described below.

Where “and” joins values, the source holds several entries; their conditions need not be identical. Equal values may be shown once. Read-outs that look alike come from different tables or passages of the source.

One series has as its system HRV14-induced vNOX. Kind of series: Spectrophotometric vNOX activity assay (NADH oxidation) with HRV-infected MCF-10A cells.
Series [1] has as its system tNOX-like activity (vNOX). Kind of series: NADH oxidase activity at the surface of HRV14-infected MCF-10A cells (tNOX-like activity, 22 min period). The format is biochemical, human. The conditions noted are these: 1 μM, added after 45 min. The procedure:
FIG. 11: NADH oxidase activity assayed for 90 min at the surface of MCF-10A human mammary epithelial cells. Capsaicin (1 μM) was added after 45 min and the assay was continued for an additional 45 min. Top Panel: No virus. Bottom Panel: MCF-10A human mammary cells infected with HRV 14. The MCF-10A cells normally lack a drug-inhibited NOX activity (lack tNOX). The normal, capsaicin-resistant constitutive NOX activity with a period length of 24 min is shown by the single downward pointing arrows. The triple arrows are tNOX-like activities with a period length of 22 min and which were inhibited by capsaicin. This activity appeared only in the virus-infected cells (see also FIG. 12). The upward pointing arrows denote a capsaicin-stimulated activity sometimes observed in proliferating endothelial cells present both with and without virus. tNOX-like activities (triple arrows) inhibited by 1 μM capsaicin now dominate the activity pattern.
FIG. 12: As in FIG. 11 except 20 h post-infection with HRV 14. Top Panel: No virus. The control MCF-10A cells normally lack a drug-inhibited NOX activity (lack tNOX). Bottom Panel: MCF-10A cells 20 h post infection with HRV 14. The normal, capsaicin-resistant constitutive NOX activity with a period length of 24 min is shown by the single downward pointing arrows. […]

The test system of a further series is MT-2 cells. Kind of series: Toxicity to non-infected MT-2 cells by MTT utilization. It is filed as cell-based, human. The procedure: After 5 days, 20 μl of MTT stock solution (7.5 mg/ml) was added. […] Subsequently, 100 μl of 10% v/v Triton X100 in acidified isopropanol was added, and absorbance was determined at 550 nm with reference at 630 nm. The cytotoxic effect of EGCg was reflected by a decrease of the cell viability of mock infected cells in the presence of EGCg in comparison to mock infected cells without EGCg (OD 492 nm) was lower than the value of mock infected cells without EGCg. The cytotoxicity values are given as negative values. Positive values are recorded for a stimulatory effect on cell viability and/or an increase in cell proliferation. Testing the antiviral potency of various compositions was accomplished as follows. EGCg and EC were from Sigma (St. Louis, Mo.). Stock solutions of 100 mM were prepared in ethanol and serially diluted with water between 10^−3 molar and 10^−9 molar. […] Each experiment was in a fourfold assay.

The subject of the next series is HRV14. Kind of series: HRV14 cytopathic effect in human osteoblast (hFOB) cells. The conditions noted are these: between 1 and 1000 nM. In general terms: Damage to the host cells serves as the signal in cytopathic effect assays.
Setting [2] is: read-out: EC50 Cell Production I (Mar. 24, 2003), 73 h hrv-infected MCF-10A cells.
Setting [3] is: read-out: EC50 inhibition of vNOX.
The mark [4] stands for this setting: read-out: EC50 Cell Production II (Apr. 01, 2003), 73 h hrv-infected MCF-10A cells.

In the case of `CC(=O)Nc1ccc(O)cc1` [Acetaminophen], in the series on HRV14-induced vNOX, the “EC50 inhibition of vNOX, range in words” value is “micromolar range”. Also, the EC50 (usually the concentration giving half of the maximal effect) with HRV14-induced vNOX (setting [2]) was 1 µM.

As for `COc1cc(CNC(=O)CCCC/C=C/C(C)C)ccc1O` [Capsaicin], the “tNOX-like activities with a period length of 22 min” value in series [1] is given as “inhibited”. In the series on HRV14-induced vNOX (read-out: EC50 Cell Production IV (May 01, 2003), 72 h HRV-infected MCF-10A cells), the EC50 turned out to be 0.001 µM.

Regarding `Oc1cc(O)c2c(c1)O[C@H](c1ccc(O)c(O)c1)[C@H](O)C2` [EC, (−)-epicatechin], the “toxicity by MTT utilization” value in the series on MT-2 cells is reported as “no toxicity”.

With `CC(C)Cc1ccc(C(C)C(=O)O)cc1` (stereo not drawn) [Ibuprofen], the “EC50 inhibition of vNOX, range in words” value in the series with HRV14-induced vNOX was “micromolar range”. The EC50 in the series on HRV14-induced vNOX (setting [2]) was 1 µM; in the series with HRV14-induced vNOX (setting [3]), ~10 µM.

Regarding `COc1ccc2cc([C@H](C)C(=O)O)ccc2c1` [Naproxen], in the series on HRV14-induced vNOX, the “EC50 inhibition of vNOX, range in words” value is “micromolar range”. Further, the EC50 with HRV14-induced vNOX (setting [2]) is 5 µM; in the series with HRV14-induced vNOX (setting [4]) it was 2 µM; with HRV14-induced vNOX (setting [3]), ~10 µM.

In the case of `COc1cc(CN)ccc1O` [Vanillylamine], the EC50 with HRV14-induced vNOX (setting [3]) is 0.0001 µM.

Regarding `[Cl-].[Cl-].[Zn+2]` [ZnCl2, zinc chloride], the “reduction of the cytopathic effect” value in the series on HRV14 (virus dilution of 1:20) was 71±9%; in the series on HRV14 (virus dilution of 1:50) it was 50%±14%. The EC50 in the series on HRV14-induced vNOX (setting [2]) was 0.01 µM; in the series on HRV14-induced vNOX (setting [4]), 0.01 µM; in the series with HRV14-induced vNOX (setting [3]), ~0.01 µM and 0.01 µM.
